# Measurements: ChEMBL document CHEMBL1148468, “Design and synthesis of novel cyanoguanidine ATP-sensitive potassium channel openers for the treatment of overactive bladder” (Bioorg Med Chem Lett, 2004)
# Columns and labels:
# [1] = target: Sulfonylurea receptor 2, Kir6.2 (Homo sapiens, UniProt O60706+Q14654); assay: (§1) In vitro ATP-sensitive potassium channel (KATP) activity in cells expressing human KATP channels Kir6.2 and sulfonylurea receptor 2B; type: functional
# [2] = target: Sulfonylurea receptors; K-ATP channels (Sus scrofa); assay: In vitro functional potassium channel opening activity in tissue strips obtained from Landrace pig bladders(LPD)
# [3] = target: Sulfonylurea receptor 2, Kir6.2 (Homo sapiens) (UniProt Q14654+O60706); assay: as §1; type: functional; settings: filed as antagonist
# Sequence of Sulfonylurea receptor 2, Kir6.2 (Q14654 whole entry): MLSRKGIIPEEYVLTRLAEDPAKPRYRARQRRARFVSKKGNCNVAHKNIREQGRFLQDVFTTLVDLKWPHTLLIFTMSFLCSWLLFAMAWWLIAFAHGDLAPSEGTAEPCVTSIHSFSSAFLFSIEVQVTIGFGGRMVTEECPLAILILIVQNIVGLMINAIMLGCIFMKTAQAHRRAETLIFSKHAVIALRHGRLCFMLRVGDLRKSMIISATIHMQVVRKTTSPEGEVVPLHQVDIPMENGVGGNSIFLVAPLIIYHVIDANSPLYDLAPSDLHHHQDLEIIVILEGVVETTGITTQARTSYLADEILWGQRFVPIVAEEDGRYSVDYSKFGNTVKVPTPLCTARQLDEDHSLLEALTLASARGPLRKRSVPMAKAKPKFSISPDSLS
# Sequence of Sulfonylurea receptor 2, Kir6.2 (O60706 whole entry): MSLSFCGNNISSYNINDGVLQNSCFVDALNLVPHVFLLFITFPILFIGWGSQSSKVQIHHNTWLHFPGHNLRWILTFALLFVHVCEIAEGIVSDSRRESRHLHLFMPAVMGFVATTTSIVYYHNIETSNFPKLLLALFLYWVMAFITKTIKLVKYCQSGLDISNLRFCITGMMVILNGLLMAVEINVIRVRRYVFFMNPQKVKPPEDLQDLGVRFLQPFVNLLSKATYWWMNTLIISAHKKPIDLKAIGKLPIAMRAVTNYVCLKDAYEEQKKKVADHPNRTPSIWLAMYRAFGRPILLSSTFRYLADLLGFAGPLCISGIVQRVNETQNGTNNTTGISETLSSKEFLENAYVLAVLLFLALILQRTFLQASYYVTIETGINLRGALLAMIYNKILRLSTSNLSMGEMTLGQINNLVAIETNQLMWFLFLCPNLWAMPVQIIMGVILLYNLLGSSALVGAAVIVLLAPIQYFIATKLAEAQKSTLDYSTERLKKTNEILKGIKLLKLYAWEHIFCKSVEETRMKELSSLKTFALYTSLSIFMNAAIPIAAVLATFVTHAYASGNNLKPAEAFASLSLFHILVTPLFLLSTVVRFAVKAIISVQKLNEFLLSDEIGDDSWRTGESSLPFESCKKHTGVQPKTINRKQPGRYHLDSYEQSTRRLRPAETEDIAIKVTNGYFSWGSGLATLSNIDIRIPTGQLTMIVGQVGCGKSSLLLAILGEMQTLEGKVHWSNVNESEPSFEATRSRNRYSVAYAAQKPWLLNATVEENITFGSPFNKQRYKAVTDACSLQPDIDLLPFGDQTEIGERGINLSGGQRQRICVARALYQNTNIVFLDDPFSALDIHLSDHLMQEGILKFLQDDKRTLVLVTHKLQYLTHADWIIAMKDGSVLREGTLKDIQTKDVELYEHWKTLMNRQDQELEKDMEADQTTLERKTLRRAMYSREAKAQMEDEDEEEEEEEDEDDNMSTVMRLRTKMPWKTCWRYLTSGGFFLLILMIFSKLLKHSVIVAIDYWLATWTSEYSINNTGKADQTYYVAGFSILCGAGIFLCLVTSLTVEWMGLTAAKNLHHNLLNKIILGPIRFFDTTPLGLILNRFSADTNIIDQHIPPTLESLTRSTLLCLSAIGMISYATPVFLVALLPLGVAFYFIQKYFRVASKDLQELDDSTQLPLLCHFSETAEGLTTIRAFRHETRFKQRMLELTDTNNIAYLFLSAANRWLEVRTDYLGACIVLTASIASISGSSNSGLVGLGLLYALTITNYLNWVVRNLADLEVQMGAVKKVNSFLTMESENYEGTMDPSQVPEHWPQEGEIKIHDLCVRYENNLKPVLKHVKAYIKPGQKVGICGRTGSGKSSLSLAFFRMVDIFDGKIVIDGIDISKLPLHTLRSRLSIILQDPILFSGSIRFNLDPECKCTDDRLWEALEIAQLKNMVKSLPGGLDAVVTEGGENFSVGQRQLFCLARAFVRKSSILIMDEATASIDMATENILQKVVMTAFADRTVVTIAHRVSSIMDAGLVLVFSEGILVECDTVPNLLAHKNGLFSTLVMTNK
Structure (SMILES),EC50 [1],EC50 [2],Log EC50 [3]
CC(C)(C)C(NC(=O)c1ccc(Cl)cc1)N/C(=N/c1cccnc1)NC#N (stereo not drawn),6.31 µM,20 µM,–
Cc1ccc(C(=O)NC(/N=C(\NC#N)Nc2cccnc2)C(C)(Cl)Cl)cc1 (stereo not drawn),2.51 µM,–,–
CC(Cl)(Cl)C(NC(=O)c1ccc(Cl)cc1)NC(=NC#N)Nc1cccnc1 (stereo not drawn),2 µM,2.51 µM,–
CC(C)(C)C(NC(=O)c1ccc(Cl)cc1)NC(Nc1cccnc1)=C(C#N)C#N (stereo not drawn),–,–,Antagonist
C=CC(C)(C)CC(NC(=O)c1ccc(Cl)cc1)N/C(=N/c1cccnc1)NC#N (stereo not drawn),10 µM,–,–
N#CN/C(=N\C(NC(=O)c1ccc(Cl)cc1)C(Cl)(Cl)Cl)Nc1cccnc1 (stereo not drawn),1 µM,2 µM,–
CC(C)(C)C(NC(=O)c1ccc(Cl)cc1)N/C(=N/c1cccnc1)NS(N)(=O)=O (stereo not drawn),> 100 µM,–,–
C=CCC(C)(C)C(NC(=O)c1ccc(Cl)cc1)NC(=NC#N)Nc1cccnc1 (stereo not drawn),20 µM,–,–
O=C(NC(NC(=S)Nc1cccnc1)C(Cl)(Cl)Cl)c1ccc(Cl)cc1 (stereo not drawn),0.794 µM,2 µM,–
CC(Cl)(Cl)C(NC(=O)c1cccc(F)c1)N/C(=N/c1cccnc1)NC#N (stereo not drawn),3.98 µM,–,–
CCCCC(C)(C)C(NC(=O)c1ccc(Cl)cc1)N/C(=N/c1cccnc1)NC#N (stereo not drawn),> 100 µM,–,–
CC(Cl)(Cl)C(NC(=O)c1ccc(Br)cc1)N/C(=N/c1cccnc1)NC#N (stereo not drawn),10 µM,–,–
CC(Cl)(Cl)C(NC(=O)c1cc(F)cc(F)c1)N/C(=N/c1cccnc1)NC#N (stereo not drawn),3.98 µM,5.01 µM,–
Cc1cccc(C(=O)NC(/N=C(\NC#N)Nc2cccnc2)C(C)(Cl)Cl)c1 (stereo not drawn),5.01 µM,–,–
CC(C)(C)C(NC(=O)c1ccc(Cl)cc1)N/C(=N/c1cccnc1)N[N+](=O)[O-] (stereo not drawn),31.6 µM,7.94 µM,–
CCC(CC)(CCC#N)C(NC(=O)c1ccc(Cl)cc1)NC(=NC#N)Nc1cccnc1 (stereo not drawn),5.01 µM,5.01 µM,–
CC(Cl)(Cl)[C@H](NC(=O)c1ccc(Cl)cc1)N/C(=N/c1cccnc1)NC#N,10 µM,20 µM,–
CC(Cl)(Cl)C(NC(=O)c1cccc(Cl)c1)N/C(=N/c1cccnc1)NC#N (stereo not drawn),3.16 µM,1.58 µM,–
CN(C)S(=O)(=O)N/C(=N\C(NC(=O)c1ccc(Cl)cc1)C(C)(C)C)Nc1cccnc1 (stereo not drawn),> 100 µM,–,–
CC(Cl)(Cl)[C@@H](NC(=O)c1ccc(Cl)cc1)N/C(=N/C#N)Nc1cccnc1,0.316 µM,5.01 µM,–
CC(C)(C)C(NC(=O)c1ccc(Cl)cc1)N/C(S)=N/c1cccnc1 (stereo not drawn),2.51 µM,7.94 µM,–
CC(C)(C)C(NC(=O)c1ccc(Cl)cc1)N/C(=C/[N+](=O)[O-])Nc1cccnc1 (stereo not drawn),> 100 µM,–,–
